Source: patent US20210045385A1, “PYRIDAZINONE-SUBSTITUTED KETOXIMES AS HERBICIDES” (FMC Corporation, priority 2018, published 2021)

Key:
Format in all cases: in vivo
[1] = test system: Italian ryegrass (Lolium multiflorum); assay: Test A preemergence, visual plant response rating; settings: for Ryegrass, Italian plant response rating (0 to 100 scale): 500 g ai/ha Preemergence, approx. 10 days
Summary of the method: (§1)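 Formulated in a non-phytotoxic solvent mixture including surfactant, each test chemical was sprayed onto the soil surface after sowing, or onto seedlings 2 to 10 cm high. Roughly 10 days later, plants were compared with untreated controls and rated for injury from 0 (no effect) to 100 (complete control).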

[2] = test system: ragweed (common ragweed, Ambrosia elatior); assay: Test A preemergence, visual plant response rating; settings: for Ragweed plant response rating: 125 g ai/ha, preemergence, 0 to 100 scale, 0 no effect, 100 complete control; for Ragweed plant response rating (0 to 100 scale): 500 g ai/ha Preemergence, approx. 10 days
Summary of the method: as §1

[3] = test system: barnyardgrass (Echinochloa crus-galli); assay: Test A preemergence, visual plant response rating; settings: for Barnyardgrass plant response rating: 125 g ai/ha, preemergence, 0 to 100 scale, 0 no effect, 100 complete control; for Barnyardgrass plant response rating (0 to 100 scale): 500 g ai/ha Preemergence, approx. 10 days
Summary of the method: as §1

kochia (Kochia scoparia) [4] = assay: Test A preemergence, visual plant response rating; settings: for Kochia plant response rating: 125 g ai/ha, preemergence, 0 to 100 scale, 0 no effect, 100 complete control; for Kochia plant response rating (0 to 100 scale): 500 g ai/ha Preemergence, approx. 10 days
Summary of the method: as §1

[5] = test system: pigweed (Amaranthus retroflexus); assay: Test A preemergence, visual plant response rating; settings: for Pigweed plant response rating: 125 g ai/ha, preemergence, 0 to 100 scale, 0 no effect, 100 complete control; for Pigweed plant response rating (0 to 100 scale): 500 g ai/ha Preemergence, approx. 10 days
Summary of the method: as §1

[6] = test system: foxtail, giant (giant foxtail, Setaria faberii); assay: Test A preemergence, visual plant response rating; settings: for Foxtail, Giant plant response rating: 125 g ai/ha, preemergence, 0 to 100 scale, 0 no effect, 100 complete control; for Foxtail, Giant plant response rating (0 to 100 scale): 500 g ai/ha Preemergence, approx. 10 days
Summary of the method: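 Ratings use a 0–100 visual scale (100 = complete control) against untreated controls, scored about 10 days after greenhouse treatment. Test chemicals were formulated in surfactant-containing non-phytotoxic solvent and applied either as soil spray after planting (preemergence) or onto one- to two-leaf, 2–10 cm plants (postemergence).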

[7] = test system: Italian ryegrass (Lolium multiflorum); assay: Test A postemergence, visual plant response rating; settings: for Ryegrass, Italian plant response rating (0 to 100 scale): 500 g ai/ha, postemergence, 0 is no effect, 100 is complete control; for Ryegrass, Italian plant response rating: Postemergence, 125 g ai/ha, 0 to 100 scale (0 no effect, 100 complete control)
Summary of the method: as §1

[8] = test system: ragweed (common ragweed, Ambrosia elatior); assay: Test A postemergence, visual plant response rating; settings: for Ragweed plant response rating (0 to 100 scale): 500 g ai/ha, postemergence, 0 is no effect, 100 is complete control; for Ragweed plant response rating: Postemergence, 125 g ai/ha, 0 to 100 scale (0 no effect, 100 complete control)
Summary of the method: as §1

[9] = test system: barnyardgrass (Echinochloa crus-galli); assay: Test A postemergence, visual plant response rating; settings: for Barnyardgrass plant response rating (0 to 100 scale): 500 g ai/ha, postemergence, 0 is no effect, 100 is complete control; for Barnyardgrass plant response rating: Postemergence, 125 g ai/ha, 0 to 100 scale (0 no effect, 100 complete control)
Summary of the method: as §1

corn (Zea mays) = assay: Test A postemergence, visual plant response rating; settings: for Corn plant response rating (0 to 100 scale): 500 g ai/ha, postemergence, 0 is no effect, 100 is complete control; for Corn plant response rating: Postemergence, 125 g ai/ha, 0 to 100 scale (0 no effect, 100 complete control)
Summary of the method: as §1

kochia (Kochia scoparia) [10] = assay: Test A postemergence, visual plant response rating; settings: for Kochia plant response rating (0 to 100 scale): 500 g ai/ha, postemergence, 0 is no effect, 100 is complete control; for Kochia plant response rating: Postemergence, 125 g ai/ha, 0 to 100 scale (0 no effect, 100 complete control)
Summary of the method: as §1

[11] = test system: blackgrass (Alopecurus myosuroides); assay: Test A postemergence, visual plant response rating; settings: for Blackgrass plant response rating (0 to 100 scale): 500 g ai/ha, postemergence, 0 is no effect, 100 is complete control; for Blackgrass plant response rating: Postemergence, 125 g ai/ha, 0 to 100 scale (0 no effect, 100 complete control)
Summary of the method: as §1

[12] = test system: galium (catchweed bedstraw, Galium aparine); assay: Test A postemergence, visual plant response rating; settings: for Galium plant response rating (0 to 100 scale): 500 g ai/ha, postemergence, 0 is no effect, 100 is complete control; for Galium plant response rating: Postemergence, 125 g ai/ha, 0 to 100 scale (0 no effect, 100 complete control)
Summary of the method: as §1

[13] = test system: pigweed (Amaranthus retroflexus); assay: Test A postemergence, visual plant response rating; settings: for Pigweed plant response rating (0 to 100 scale): 500 g ai/ha, postemergence, 0 is no effect, 100 is complete control; for Pigweed plant response rating: Postemergence, 125 g ai/ha, 0 to 100 scale (0 no effect, 100 complete control)
Summary of the method: as §1

[14] = test system: foxtail, giant (giant foxtail, Setaria faberii); assay: Test A postemergence, visual plant response rating; settings: for Foxtail, Giant plant response rating (0 to 100 scale): 500 g ai/ha, postemergence, 0 is no effect, 100 is complete control; for Foxtail, Giant plant response rating: Postemergence, 125 g ai/ha, 0 to 100 scale (0 no effect, 100 complete control)
Summary of the method: as §1

[15] = test system: wheat (Triticum aestivum); assay: Test A postemergence, visual plant response rating; settings: for Wheat plant response rating (0 to 100 scale): 500 g ai/ha, postemergence, 0 is no effect, 100 is complete control; for Wheat plant response rating: Postemergence, 125 g ai/ha, 0 to 100 scale (0 no effect, 100 complete control)
Summary of the method: as §1

[16] = test system: ducksalad (Heteranhera limosa); assay: Test B flooded paddy test, visual plant response rating; settings: 250 g ai/ha, Flood, applied to paddy water, 2-leaf stage, evaluated after 13 to 15 days
Summary of the method: (§2)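 Compounds added straight into paddy water of pots flooded to 3 cm, with 2-leaf-stage plants of the four species; water level held throughout.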

[17] = test system: sedge, umbrella (small-flower umbrella sedge, Cyperus difformis); assay: as above; settings: 250 g ai/ha, Flood, applied to paddy water, 2-leaf stage, evaluated after 13 to 15 days
Summary of the method: as §2

[18] = test system: barnyardgrass (Echinochloa crus-galli); assay: as above; settings: 250 g ai/ha, Flood, applied to paddy water, 2-leaf stage, evaluated after 13 to 15 days
Summary of the method: as §2

rice (Oryza sativa) = assay: as above; settings: 250 g ai/ha, Flood, applied to paddy water, 2-leaf stage, evaluated after 13 to 15 days
Summary of the method: as §2

SMILES	Ryegrass, Italian plant response rating (0 to 100 scale) [1]	Ragweed plant response rating [2]	Ragweed plant response rating (0 to 100 scale) [2]	Barnyardgrass plant response rating [3]	Barnyardgrass plant response rating (0 to 100 scale) [3]	Kochia plant response rating (kochia (Kochia scoparia) [4])	Kochia plant response rating (0 to 100 scale) (kochia (Kochia scoparia) [4])	Pigweed plant response rating [5]	Pigweed plant response rating (0 to 100 scale) [5]	Foxtail, Giant plant response rating [6]	Foxtail, Giant plant response rating (0 to 100 scale) [6]	Ryegrass, Italian plant response rating (0 to 100 scale) [7]	Ryegrass, Italian plant response rating [7]	Ragweed plant response rating (0 to 100 scale) [8]	Ragweed plant response rating [8]	Barnyardgrass plant response rating (0 to 100 scale) [9]	Barnyardgrass plant response rating [9]	Corn plant response rating (0 to 100 scale) (corn (Zea mays))	Corn plant response rating (corn (Zea mays))	Kochia plant response rating (0 to 100 scale) (kochia (Kochia scoparia) [10])	other results
CON=C(c1cccc(C2CC2)c1)c1c(O)c(C)nn(C)c1=O [Compound 123]	90	50	80	0	50	10	50	40	60	10	40	80	60	90	80	40	0	0	0	70	Kochia plant response rating (kochia (Kochia scoparia) [10]): 50; Blackgrass plant response rating (0 to 100 scale) [11]: 30; Blackgrass plant response rating [11]: 20; Galium plant response rating (0 to 100 scale) [12]: 80; Galium plant response rating [12]: 70; Pigweed plant response rating (0 to 100 scale) [13]: 80; Pigweed plant response rating [13]: 70; Foxtail, Giant plant response rating (0 to 100 scale) [14]: 60; Foxtail, Giant plant response rating [14]: 20; Wheat plant response rating (0 to 100 scale) [15]: 10; Wheat plant response rating [15]: 0; Plant response rating, Ducksalad (0 to 100 scale, 0 is no effect, 100 is complete control) [16]: 0; Plant response rating, Sedge, Umbrella (0 to 100 scale, 0 is no effect, 100 is complete control) [17]: 0; Plant response rating, Barnyardgrass (0 to 100 scale, 0 is no effect, 100 is complete control) [18]: 0; Plant response rating, Rice (0 to 100 scale, 0 is no effect, 100 is complete control) (rice (Oryza sativa)): 0
CCC(=O)Oc1c(C)nn(C)c(=O)c1C(=NOC)c1cccc2ccccc12 [Compound 49]	70	100	100	30	90	50	70	90	100	50	80	80	40	90	80	50	20	50	0	90	Ryegrass, Italian plant response rating ([1]; 125 g ai/ha, preemergence, 0 to 100 scale, 0 no effect, 100 complete control): 40; Kochia plant response rating (kochia (Kochia scoparia) [10]): 70; Blackgrass plant response rating (0 to 100 scale) [11]: 90; Blackgrass plant response rating [11]: 70; Galium plant response rating (0 to 100 scale) [12]: 90; Galium plant response rating [12]: 80; Pigweed plant response rating (0 to 100 scale) [13]: 90; Pigweed plant response rating [13]: 80; Foxtail, Giant plant response rating (0 to 100 scale) [14]: 80; Foxtail, Giant plant response rating [14]: 40; Wheat plant response rating (0 to 100 scale) [15]: 10; Wheat plant response rating [15]: 0; Plant response rating, Ducksalad (0 to 100 scale, 0 is no effect, 100 is complete control) [16]: 0; Plant response rating, Sedge, Umbrella (0 to 100 scale, 0 is no effect, 100 is complete control) [17]: 0; Plant response rating, Barnyardgrass (0 to 100 scale, 0 is no effect, 100 is complete control) [18]: 0; Plant response rating, Rice (0 to 100 scale, 0 is no effect, 100 is complete control) (rice (Oryza sativa)): 0
